By Ki is commonly meant the dissociation constant of the complex between target and ligand, obtained from inhibition or displacement.

For the assay, the target named is Sushi domains (SD1/2) protein. Briefly: Fluorescence polarization (FP) competition assay with AJAP-1probe, calculated Ki. It is filed as binding. A digest of the protocol:
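Ki values were derived from IC50s (sigmoidal fits, ≥ triplicate), with probe Kd obtained by saturation titration of SD1/2. Peptides displaced a 25 nM TAMRA-labelled probe; polarization read at 530/580 nm in 1% BSA-containing PBS, pH 7.4, room temperature.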

Where [1] appears, read: Table 16, ncAAs incorporated peptides, read-out: Ki (nM) mean ± SEM.
Where [2] appears, read: Table 7, Ala-, D-amino acids and N-methylation scans of APPWT, read-out: Ki (nM) mean ± SEM.

SMILES strings stand for the structures. Read-outs that look alike come from different tables or passages of the source. Non-standard residues stand in square brackets, D forms with d. Residues, ends and D or L forms follow the SMILES beside them. 1Nal = N[C@@H](Cc1cccc2ccccc12)C(=O)O; 2Nal = N[C@@H](Cc1ccc2ccccc2c1)C(=O)O; 3Pal = N[C@@H](Cc1cccnc1)C(=O)O; 4Pal = N[C@@H](Cc1ccncc1)C(=O)O; NMeD = CN[C@@H](CC(=O)O)C(=O)O; NMeS = CN[C@@H](CO)C(=O)O

In the case of `CC(=O)N[C@@H](CCC(=O)O)C(=O)N[C@@H](CC(=O)O)C(=O)N[C@@H](CC(=O)O)C(=O)N[C@@H](CO)C(=O)N[C@@H](Cc1cccc2ccccc12)C(=O)N[C@H](C(=O)N[C@@H](Cc1c[nH]c2ccccc12)C(=O)N[C@@H](Cc1c[nH]c2ccccc12)C(=O)NCC(=O)NCC(=O)N[C@@H](C)C(=O)N[C@@H](CC(=O)O)C(=O)N[C@H](C(=O)N[C@@H](CC(=O)O)C(N)=O)[C@@H](C)O)C(C)C` (Ac-EDDS[1Nal]VWWGGADTD-NH2), the Ki under setting [1] is 69 ± 3 nM. Take `CC(=O)N[C@@H](CCC(=O)O)C(=O)N[C@@H](CC(=O)O)C(=O)N[C@@H](CC(=O)O)C(=O)N[C@@H](CO)C(=O)N[C@@H](Cc1ccc2ccccc2c1)C(=O)N[C@H](C(=O)N[C@@H](Cc1c[nH]c2ccccc12)C(=O)N[C@@H](Cc1c[nH]c2ccccc12)C(=O)NCC(=O)NCC(=O)N[C@@H](C)C(=O)N[C@@H](CC(=O)O)C(=O)N[C@H](C(=O)N[C@@H](CC(=O)O)C(N)=O)[C@@H](C)O)C(C)C` (Ac-EDDS[2Nal]VWWGGADTD-NH2): under “purified peptides, read-out: Ki”, the inhibitory constant (Ki) is 43 nM. Besides, for the setting “relative to Asp207Trp mutant of APPWT”, the “fold increased affinity compared to Asp207Trp” value is 2 fold. Consider `CC(=O)N[C@@H](CCC(=O)O)C(=O)N[C@@H](CC(=O)O)C(=O)N[C@@H](CC(=O)O)C(=O)N[C@@H](CO)C(=O)N[C@@H](Cc1cccnc1)C(=O)N[C@H](C(=O)N[C@@H](Cc1c[nH]c2ccccc12)C(=O)N[C@@H](Cc1c[nH]c2ccccc12)C(=O)NCC(=O)NCC(=O)N[C@@H](C)C(=O)N[C@@H](CC(=O)O)C(=O)N[C@H](C(=O)N[C@@H](CC(=O)O)C(N)=O)[C@@H](C)O)C(C)C` (Ac-EDDS[3Pal]VWWGGADTD-NH2), for which the Ki under setting [1] is 373 ± 7 nM. As to `CC(=O)N[C@@H](CCC(=O)O)C(=O)N[C@@H](CC(=O)O)C(=O)N[C@@H](CC(=O)O)C(=O)N[C@@H](CO)C(=O)N[C@@H](Cc1ccncc1)C(=O)N[C@H](C(=O)N[C@@H](Cc1c[nH]c2ccccc12)C(=O)N[C@@H](Cc1c[nH]c2ccccc12)C(=O)NCC(=O)NCC(=O)N[C@@H](C)C(=O)N[C@@H](CC(=O)O)C(=O)N[C@H](C(=O)N[C@@H](CC(=O)O)C(N)=O)[C@@H](C)O)C(C)C` (Ac-EDDS[4Pal]VWWGGADTD-NH2), the Ki under setting [1] was 424 ± 13 nM.

For the compound `CC(=O)N[C@@H](CCC(=O)O)C(=O)N[C@@H](CC(=O)O)C(=O)N[C@@H](CC(=O)O)C(=O)N[C@@H](CO)C(=O)N(C)[C@@H](CC(=O)O)C(=O)N[C@H](C(=O)N[C@@H](Cc1c[nH]c2ccccc12)C(=O)N[C@@H](Cc1c[nH]c2ccccc12)C(=O)NCC(=O)NCC(=O)N[C@@H](C)C(=O)N[C@@H](CC(=O)O)C(=O)N[C@H](C(=O)N[C@@H](CC(=O)O)C(N)=O)[C@@H](C)O)C(C)C` (Ac-EDDS[NMeD]VWWGGADTD-NH2), the inhibitory constant (Ki) under setting [2] is 3760 ± 64 nM. Consider `CC(=O)N[C@@H](CCC(=O)O)C(=O)N[C@@H](CC(=O)O)C(=O)N[C@@H](CC(=O)O)C(=O)N[C@@H](Cc1c[nH]c2ccccc12)C(=O)N[C@@H](CC(=O)O)C(=O)N[C@H](C(=O)N[C@@H](Cc1c[nH]c2ccccc12)C(=O)N[C@@H](Cc1c[nH]c2ccccc12)C(=O)NCC(=O)NCC(=O)N[C@@H](C)C(=O)N[C@@H](CC(=O)O)C(=O)N[C@H](C(=O)N[C@@H](CC(=O)O)C(N)=O)[C@@H](C)O)C(C)C` (Ac-EDDWDVWWGGADTD-NH2), for which the Ki (Table 10, deep mutational scanning validation variants of APPWT, read-out: Ki (nM) mean ± SEM) was 257 ± 4 nM. `CC(=O)N[C@@H](CCC(=O)O)C(=O)N[C@@H](CC(=O)O)C(=O)N[C@@H](CC(=O)O)C(=O)N(C)[C@@H](CO)C(=O)N[C@@H](CC(=O)O)C(=O)N[C@H](C(=O)N[C@@H](Cc1c[nH]c2ccccc12)C(=O)N[C@@H](Cc1c[nH]c2ccccc12)C(=O)NCC(=O)NCC(=O)N[C@@H](C)C(=O)N[C@@H](CC(=O)O)C(=O)N[C@H](C(=O)N[C@@H](CC(=O)O)C(N)=O)[C@@H](C)O)C(C)C` (Ac-EDD[NMeS]DVWWGGADTD-NH2): the inhibition constant Ki under setting [2] is 1670 ± 32 nM.

Source of the values: patent US20260193293A1, “PEPTIDES CAPABLE OF INHIBITING PROTEIN-PROTEIN INTERACTIONS AT GABAB1A SUBUNIT AND USES THEREOF” (UNIVERSITY OF COPENHAGEN, priority 2022, published 2026).
